Article PMC11220827 (Frontiers in Pharmacology, 2024)
Read-outs that look alike come from different tables or passages of the source.

Columns and labels:
5-HT2B (h) = 5-HT2B (h) (Homo sapiens, UniProt P41595); assay: Pharmacology profiling: 5-HT2B (h) (agonist RL); assay type: binding; details: for inhibition at 10 µM: read-out: 5-HT2B (h) (agonist RL): % inhibition @10 µM
Description: (§1) Cosmetics Europe’s Systemic Toxicity Taskforce (SysTox-TF) has extended the list of targets in an in vitro screen originally described by [Bowes et al. (2012)] to assess the effects of cosmetic chemicals on target molecules. The approach was based on the knowledge that various targets of pharmacological interest have been linked to human adverse drug reactions, and that screening of these has helped the pharma industry in identifying drug candidates with acceptable human safety profiles ([Bowes et al., 2012]; [Scott et al., 2022]). The methods used by the pharma industry were adapted for use in cosmetic chemical NGRA. A final list of 83 target assays were considered suitable for cosmetic chemical safety testing (see Supplementary Materials S1.7). The targets were receptors, ion channels, transporters and enzymes identified by the pharma industry as linked to human adverse drug reactions, supplemented by additional targets that have been reasoned to be linked to systemic toxicities of chemicals in animals. Chemicals that are flagged for a target are tested in follow-up dose-response assays to establish potency of the interaction. […]. [Valentin et al., 2018]; [Dodson et al., 2021]). […].
(§2) assay’s reference compound was set to 100%. For antagonist assays, the basal signal (exposure to fixed concentration of agonist only) was set to 100%. Activity of the samples was scaled accordingly, […]
(§3) Using these graphs, lowest […]
(§4) compound activity for antagonist assays.
(§5) S1.7. Pharmacology profiling assays […]
(§6) reasoned to link to pathological effects. […]
(§7) around the control level. […]
(§8) determine the potency (IC50).
(§9) Supplementary Table S4 Pharmacology profiling assay panel. […]

COX1 (h) = COX1 (h) (Homo sapiens, UniProt P23219); assay: Pharmacology profiling: COX1 (h); assay type: biochemical
Chain of COX1 (h) (P23219 24-599): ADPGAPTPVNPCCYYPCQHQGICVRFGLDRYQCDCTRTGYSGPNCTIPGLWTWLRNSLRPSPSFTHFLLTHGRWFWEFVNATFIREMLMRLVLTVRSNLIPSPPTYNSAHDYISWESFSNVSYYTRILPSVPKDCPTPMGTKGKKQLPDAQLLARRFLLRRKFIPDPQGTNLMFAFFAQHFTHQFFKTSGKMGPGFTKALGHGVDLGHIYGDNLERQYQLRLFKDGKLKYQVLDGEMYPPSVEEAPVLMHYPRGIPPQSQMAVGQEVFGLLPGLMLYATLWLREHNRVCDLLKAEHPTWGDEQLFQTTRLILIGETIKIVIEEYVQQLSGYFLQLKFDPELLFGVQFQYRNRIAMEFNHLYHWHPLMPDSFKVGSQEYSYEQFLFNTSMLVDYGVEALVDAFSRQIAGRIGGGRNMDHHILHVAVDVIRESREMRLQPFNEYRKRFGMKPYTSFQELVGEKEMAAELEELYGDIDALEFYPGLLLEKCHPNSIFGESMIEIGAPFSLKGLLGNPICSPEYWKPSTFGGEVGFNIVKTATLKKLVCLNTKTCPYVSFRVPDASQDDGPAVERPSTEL
Description: (§10) targets. The list of targets included the original panel of 44 targets (including receptors, ion channels,
(§11) transporters and enzymes) recommended by 4 major pharmaceutical companies as significant
(§12) reasoned to link to pathological effects. Results showing an inhibition or stimulation higher than 50%
(§13) are considered to represent significant effects (i.e. a “hit”).
(§14) and 50% are indicative of weak to moderate effects and results showing an inhibition (or stimulation)
(§15) around the control level. For several targets, additional concentration effect assays were conducted to
(§16) determine the potency (IC50). The concentrations tested (in duplicate) ranged between 30 nM and 100

Estrogen pathway = test system: Estrogen pathway; parameters: method as in ToxCast; details: ref ToxCast, cited from earlier work; on Estrogen pathway: Cell Proliferation, Call: key: Pos = positive result; Neg = negative result; Inc = uncertain/inconclusive result; on Estrogen pathway: Dimerization, Call: key: Pos = positive result; Neg = negative result; Inc = uncertain/inconclusive result; on Estrogen pathway: Receptor binding, Call: key: Pos = positive result; Neg = negative result; Inc = uncertain/inconclusive result; on Estrogen pathway: Reporter protein Agonist, Call: key: Pos = positive result; Neg = negative result; Inc = uncertain/inconclusive result
Thyroid pathway = test system: Thyroid pathway; parameters: method as in ToxCast; details: ref ToxCast, cited from earlier work
ER = test system: ER; parameters: method as in Opera; details: experimental call listed in the Opera output; ref Opera; cited from earlier work
MAO-A = molecular target: T1, MAO-A (Rattus norvegicus, UniProt P21396); assay: Pharmacology profiling: MAO-A (antagonist RL); assay type: binding; details: for inhibition at 10 µM: read-out: MAO-A (antagonist RL): % inhibition @10 µM
T1 sequence (P21396 1-526): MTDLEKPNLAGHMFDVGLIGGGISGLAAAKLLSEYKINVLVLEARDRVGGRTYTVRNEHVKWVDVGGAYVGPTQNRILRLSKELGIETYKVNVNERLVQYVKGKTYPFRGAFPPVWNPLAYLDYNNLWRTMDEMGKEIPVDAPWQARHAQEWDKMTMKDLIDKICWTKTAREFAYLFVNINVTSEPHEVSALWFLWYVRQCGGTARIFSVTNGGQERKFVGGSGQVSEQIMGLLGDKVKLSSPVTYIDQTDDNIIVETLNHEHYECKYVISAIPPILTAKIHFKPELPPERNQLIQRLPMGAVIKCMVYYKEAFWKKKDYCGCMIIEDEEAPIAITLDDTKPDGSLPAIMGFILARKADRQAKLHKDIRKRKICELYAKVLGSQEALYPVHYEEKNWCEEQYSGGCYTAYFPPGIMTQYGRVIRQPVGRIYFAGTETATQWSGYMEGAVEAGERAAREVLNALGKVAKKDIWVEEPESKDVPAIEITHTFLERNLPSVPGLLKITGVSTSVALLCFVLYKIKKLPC
Description: as §10, §11, §12, §13, §14, §15, §16

MCF-7 cells = assay: Transcriptomics (TempO-Seq, BMD analysis) in MCF-7 cells; assay type: cell-based, human; details: for Lowest median BMD, 3 genes passing all filters / Lowest median BMD, >5 genes passing all filters / BMD relating to estrogen effects: MCF-7, 24 h; for Lowest median BMD, 3 genes passing all filters / Lowest median BMD, >5 genes passing all filters: pathway differs per chemical; for BMD relating to estrogen effects: pathway named in the cell
Description: (§17) These differed with respect to the number of genes passing all filters in each pathway (3 versus 5 genes). […] Therefore, we captured pathways which fulfilled both criteria.
(§18) HepG2 (human hepatoblastoma) , MCF-7 (human breast adenocarcinoma) cells supplied by
(§19) Public Health England European Collection of Cell Cultures (ECACC, Salisbury, UK). Differentiated
(§20) HepaRG cells (HPR116, Lot HPR116239 -TA08) were from Biopredic International (Rennes, France).
(§21) Test chemicals were prepared in DMSO as serial dilutions, resulting in concentrations in media of
(§22) biological replicates were treated with the appropriate dose of co mpound for 24 h prior to cell lysis.
(§23) Biospyder human whole genome panel version 1 (https://biospyder.com).
Gene normalization and analysis
(§24) expression values for each probe were normalized by applying DESEQ2 normalization. A pseudo-
(§25) read-count of 1.0 was added to each normalized expression value, and then the values were log2
(§26) transformed . Analyses performed included Gene and Pathway, Dose Response and Network
(§27) monotonic increasing/decreasing trend were those which confirmed to the criteria : William’s trend
(§28) Those genes were then used in categorical (pathway) analysis for the Gene Ontology (GO) terms and
(§29) REACTOME pathways. Significant dose responsive pathways were determined according to : Fisher’s

Thyroid peroxidase = test system: Thyroid peroxidase; parameters: method as in ToxCast; details: ref ToxCast, cited from earlier work
COX2 (h) = molecular target: T2, COX2 (h) (Homo sapiens, UniProt P35354); assay: Pharmacology profiling: COX2 (h); assay type: biochemical; details: for inhibition at 10 µM: read-out: COX2 (h): % inhibition @10 µM
T2 sequence (P35354 18-604): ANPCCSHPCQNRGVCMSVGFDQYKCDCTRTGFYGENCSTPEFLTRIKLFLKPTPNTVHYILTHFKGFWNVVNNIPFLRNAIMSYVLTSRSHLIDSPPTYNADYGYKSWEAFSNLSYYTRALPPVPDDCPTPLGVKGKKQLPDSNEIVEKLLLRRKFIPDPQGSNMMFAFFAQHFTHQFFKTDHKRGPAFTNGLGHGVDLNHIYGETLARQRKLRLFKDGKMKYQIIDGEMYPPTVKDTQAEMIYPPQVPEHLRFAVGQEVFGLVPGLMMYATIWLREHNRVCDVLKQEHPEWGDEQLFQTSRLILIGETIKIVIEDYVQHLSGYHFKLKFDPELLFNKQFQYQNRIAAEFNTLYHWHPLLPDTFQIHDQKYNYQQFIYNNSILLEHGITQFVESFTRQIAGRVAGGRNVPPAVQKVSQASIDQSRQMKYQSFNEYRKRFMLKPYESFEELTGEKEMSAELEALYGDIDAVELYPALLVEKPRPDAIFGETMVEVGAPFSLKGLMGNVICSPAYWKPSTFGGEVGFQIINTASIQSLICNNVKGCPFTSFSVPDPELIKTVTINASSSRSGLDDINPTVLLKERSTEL
Description: as §1, §2, §3, §4, §5, §6, §7, §8, §9

HepG2 cells = assay: Transcriptomics (TempO-Seq, BMD analysis) in HepG2 cells; assay type: cell-based, human; details: for BMD relating to estrogen effects: pathway named in the cell; for BMD/NOEC, gene pathway deregulation: HepG2 cells
Description: as §17, §18, §19, §20, §21, §22, §23
Gene normalization and analysis
as §24, §25, §26, §27, §28, §29

[1] = read-out: Estrogen pathway: Receptor binding, AC50
[2] = HepG2, 24 h, pathway differs per chemical

Chain of 5-HT2B (h) (P41595 whole entry): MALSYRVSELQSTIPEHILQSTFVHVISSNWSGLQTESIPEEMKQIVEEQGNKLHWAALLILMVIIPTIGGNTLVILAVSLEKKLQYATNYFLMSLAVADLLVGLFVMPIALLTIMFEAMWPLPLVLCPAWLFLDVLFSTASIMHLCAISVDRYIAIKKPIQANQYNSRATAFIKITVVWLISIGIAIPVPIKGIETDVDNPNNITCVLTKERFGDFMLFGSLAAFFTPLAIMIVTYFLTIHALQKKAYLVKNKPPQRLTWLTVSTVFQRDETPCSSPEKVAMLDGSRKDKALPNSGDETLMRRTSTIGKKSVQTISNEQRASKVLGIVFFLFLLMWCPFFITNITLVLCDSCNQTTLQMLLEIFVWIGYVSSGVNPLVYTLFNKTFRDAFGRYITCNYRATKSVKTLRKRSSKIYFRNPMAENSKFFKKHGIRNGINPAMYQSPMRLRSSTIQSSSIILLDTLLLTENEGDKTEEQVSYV

Row | SMILES | inhibition at 10 µM (5-HT2B (h)) [%] | AC50 (Estrogen pathway; [1]) [nM] | ER agonist, Experimental (ER) | ER binding, Experimental (ER) | inhibition at 10 µM (MAO-A) [%] | Lowest median BMD, 3 genes passing all filters (MCF-7 cells) [µM] | Lowest median BMD, >5 genes passing all filters (MCF-7 cells) [µM] | BMD relating to estrogen effects (MCF-7 cells) | Thyroid pathway: Thyroid peroxidase, Call (Thyroid peroxidase) | inhibition at 10 µM (COX2 (h)) [%] | Lowest median BMD, >5 genes passing all filters (HepG2 cells; [2]) [µM] | BMD relating to estrogen effects (HepG2 cells; HepG2, 24 h) | BMD/NOEC, gene pathway deregulation (HepG2 cells) [µM] | also measured
1 | O=c1c(-c2ccc(O)cc2)coc2cc(O)ccc12 [Daidzein, DAIDZEIN] | 44.1 | 170 | Active (medium) | Active (weak) | 49.6 | 0.038 | 0.084 | 21.3 - response to estrogen ↓ µM | Pos | 21.6 | 30.0 | None | 16.2 | inhibition at 10 µM (COX1 (h); read-out: COX1 (h): % inhibition @10 µM): 44.7%; Estrogen pathway: Cell Proliferation, Call (Estrogen pathway): Pos; Estrogen pathway: Dimerization, Call (Estrogen pathway): Pos; Estrogen pathway: Receptor binding, Call (Estrogen pathway): Pos; Estrogen pathway: Reporter protein Agonist, Call (Estrogen pathway): Pos; Estrogen pathway: Reporter protein Antagonist, Call (Estrogen pathway): Neg; Estrogen pathway: mRNA induction, Call (Estrogen pathway): Pos; AC50 (Estrogen pathway; read-out: Estrogen pathway: Cell Proliferation, AC50): 150 nM; AC50 (Estrogen pathway; read-out: Estrogen pathway: Dimerization, AC50): 770 nM; AC50 (Estrogen pathway; read-out: Estrogen pathway: Reporter protein Agonist, AC50): 1680 nM; AC50 (Estrogen pathway; read-out: Estrogen pathway: mRNA induction, AC50): 150 nM; Thyroid pathway: Reporter protein Agonist, Call (Thyroid pathway): Neg; Thyroid pathway: Reporter protein Antagonist, Call (Thyroid pathway): Neg; Thyroid pathway: mRNA induction, Call (Thyroid pathway): Neg; IC50 (MAO-A): 9180 nM; Lowest median BMD (BMD/NOEC, gene pathway deregulation) (MCF-7 cells; MCF-7 cells): 38 nM; AC50 (Thyroid peroxidase; read-out: Thyroid pathway: Thyroid peroxidase, AC50): 10200 nM; Lowest median BMD, 3 genes passing all filters (HepG2 cells; [2]): 16.2 µM
2 | O=c1c(-c2ccc(O)cc2)coc2cc(O)cc(O)c12 [Genistein, 5,7-DIHYDROXY-3-(4-HYDROXYPHENYL)-4-BENZOPYRONE] | 91.9 | 10 | Active (medium) | Active (medium) | 86 | 0.0065 | 0.051 | 60.1 - estrogen 2-hydroxylase activity ↓ µM | Pos | 53.8 | 15.7 | 53.8 - Estrogen-dependent gene expression ↓ µM | 15.7 | IC50 (5-HT2B (h)): 682 nM; IC50 (COX1 (h)): 7690 nM; AC50 (Thyroid pathway; read-out: Thyroid pathway: Reporter protein Antagonist, AC50): 13100 nM; ER antagonist, Experimental (ER): Active (weak); IC50 (COX2 (h)): 13600 nM
